From patent publication US8906826B2, “Herbicidal compositions comprising 4-amino-3-chloro-5-fluoro-6-(4-chloro-2-fluoro-3-methoxyphenyl) pyridine-2-carboxylic acid or a derivative thereof and imidazolinones” (Dow AgroSciences, LLC, priority 2012, dated 2014) come the findings set out here.

Experiment [1] deals with CHEAL. The experiment in a line: Postemergence herbicidal activity in cereal crops, greenhouse (Example V). Type of experiment: in vivo, Chenopodium album L. The procedure:
(§1) Seeds of the desired test plant species were planted in Sun Gro MetroMix® 306 planting mixture, which typically has a pH of 6.0 to 6.8 and an organic matter content of about 30 percent, in plastic pots with a surface area of 103.2 square centimeters (cm^2). When required to ensure good germination and healthy plants, a fungicide treatment and/or other chemical or physical treatment was applied. The plants were grown for 7-36 days in a greenhouse with an approximate 14 hour photoperiod which was maintained at about 18° C. during the day and about 17° C. during the night. Nutrients and water were added on a regular basis and supplemental lighting was provided with overhead metal halide 1000-Watt lamps as necessary. The plants were employed for testing when they reached the second or third true leaf stage.
(§2) Treatments consisted of the benzyl ester of 4-amino-3-chloro-5-fluoro-6-(4-chloro-2-fluoro-3-methoxy-phenyl)pyridine-2-carboxylic acid (Compound A), formulated as an SC, a second cereal herbicide alone and then both in combination.
(§3) Other herbicidal components were applied on an acid equivalent basis and include acetolactate synthase (ALS)-inhibiting herbicides (imidazolinone chemical class) imazamethabenz-methyl formulated as Assert®. Spray solutions of the second cereal herbicide and experimental compound mixtures were prepared by adding the stock solutions to the appropriate amount of dilution solution to form 12 mL spray solution with active ingredients in two- and three-way combinations. […]
(§4) The treated plants and control plants were placed in a greenhouse as described above and watered by sub-irrigation to prevent wash-off of the test compounds. After 20-22 days, the condition of the test plants as compared with that of the control plants was determined visually and scored on a scale of 0 to 100 percent where 0 corresponds to no injury and 100 corresponds to complete kill. […]

The subject of experiment [2] is PAPRH. The description is as above. Type of experiment: in vivo, Papaver rhoeas L. The procedure:
as §1, §2, §3, §4

The subject of experiment [3] is SASKR. The description is as above. In kind it is in vivo, Salsola iberica L. The procedure:
as §1, §2, §3, §4

In experiment [4] the test system is VERPE. The description is as above. In kind it is in vivo, Veronica persica Poir. The procedure: as §1, §2, §3, §4
The test system of experiment [5] is CYPRO. The experiment in a line: In-water applied, transplanted paddy rice weeds (Example II). In kind it is in vivo, Cyperus rotundus L. The procedure:
Weed seeds or nutlets of the desired test plant species were planted in puddled soil (mud) prepared by mixing a shredded, non-sterilized mineral soil (50.5 percent silt, 25.5 percent clay, and 24 percent sand, with a pH of about 7.6 and an organic matter content of about 2.9 percent) and water at a 1:1 volumetric ratio. The prepared mud was dispensed in 365 mL aliquots into 16-ounce (oz.) non-perforated plastic pots with a surface area of 86.59 square centimeters (cm^2) leaving a headspace of 3 centimeters (cm) in each pot. Mud was allowed to dry overnight prior to planting or transplanting. Rice seeds were planted in Sun Gro MetroMix® 306 planting mixture, which typically has a pH of about 6.0 to about 6.8 and an organic matter content of about 30 percent, in plastic plug trays. Seedlings at the second or third leaf stage of growth were transplanted into 860 mL of mud contained in 32-oz. non-perforated plastic pots with a surface area of 86.59 cm^2 4 days prior to herbicide application. The paddy was created by filling the headspace of the pots with 2.5 to 3 cm of water. When required to ensure good germination and healthy plants, a fungicide treatment and/or other chemical or physical treatment was applied. The plants were grown for 4-22 days in a greenhouse with an approximate 14 h photoperiod which was maintained at about 29° C. during the day and about 26° C. during the night. Nutrients were added as Osmocote® (19:6:12, N:P:K+minor nutrients) at 2 g per 16-oz. pot and 4 g per 32-oz. pot. […]
Treatment requirements for each compound or herbicidal component were calculated based upon the rates being tested, the concentration of active ingredient or acid equivalent in the formulation, an application volume of 2 mL per component per pot, and an application area of 86.59 cm^2 per pot.
For formulated compounds, a measured amount was placed in an individual 100 or 200 mL glass vial and was dissolved in a volume of 1.25% (v/v) Agri-Dex® crop oil concentrate to obtain application solutions. […]

Where [6] appears, read: Compound A Benzyl Ester 2 gae/ha.
Where [7] appears, read: Compound A Benzyl Ester 4 gae/ha.

Take `COc1c(Cl)ccc(-c2nc(C(=O)OCc3ccccc3)c(Cl)c(N)c2F)c1F` [Compound A Benzyl Ester, benzyl ester of 4-amino-3-chloro-5-fluoro-6-(4-chloro-2-fluoro-3-methoxy-phenyl)pyridine-2-carboxylic acid]: the figures for the “Visual Weed Control (%) - 21 DAA CHEAL Obs” value in experiment [1] (setting [6]) and in experiment [1] (setting [7]) were 50% and 60%, respectively. The “Visual Weed Control (%) - 21 DAA PAPRH Obs” value in experiment [2] (setting [6]) turned out to be 20%; in experiment [2] (setting [7]), 70%. In addition, the entries for the “Visual Weed Control (%) - 21 DAA SASKR Obs” value in experiment [3] (setting [6]) and in experiment [3] (setting [7]) were 10% and 60%, respectively. Further, the “Visual Weed Control (%) - 21 DAA VERPE Obs” value turned out to be 0% in experiment [4] (setting [6]) and 5% in experiment [4] (setting [7]).
With `COc1c(Cl)ccc(-c2nc(C(=O)O)c(Cl)c(N)c2F)c1F` [Compound A Acid, 4-amino-3-chloro-6-(4-chloro-2-fluoro-3-methoxyphenyl)-5-fluoropyridine-2-carboxylic acid], the “Visual Weed Control (%) - 22 DAA CYPRO Obs” value in experiment [5] (Compound A Acid 10.6 gae/ha) is recorded as 0%; in experiment [5] (Compound A Acid 21.2 gae/ha), 40%.
